Entries after “also recorded” stand apart in the source; their conditions may differ.
Experiments:
[1] = system: SHR hypertensive rats; experiment: Plasma cholesterol levels test in SHR hypertensive rats; format: in vivo, Male SHR
Procedure: (§1) Distinct rat groups were orally treated, once a day, with 5 mg/kg of compounds 4a or 5a or 6a during the first 4 days, 10 mg/kg during the next 4 days and 15 mg/kg until the end of the treatment period or vehicle (control) for the same days. Similarly, another rat group received metformin (MET) (reference drug used for lowering glucose serum levels) in a 300 mg/kg dose, orally, from day 1 to the end of the treatment. Plasma cholesterol levels were measured in triplicate 12 hours after drug administration by the cholesterol oxidase/peroxidase method (BioSystems S.A, Barcelona, Spain). Blood samples were obtained by femoral vein punction. This method was chosen because of its noninvasive character, enabling daily measurements with the same rats throughout the entire treatment.
(§2) Male SHR were provided by Charles River Laboratories (USA). Until the experiments were carried out, the animals have had free access to feed and water. The room temperature was kept at 22±2° C. and the light/dark cycle was of 12 hours. All procedures were submitted to the Animal Experimentation Ethics Committee.
as §1, with “metformin” for “metformin (MET)”, “Blood pressure was” for “Plasma cholesterol levels were”, “4” for “12”, “administration in warmed warmed, restrained, conscious rats” for “administration”, “tail-cuff” for “cholesterol oxidase/peroxidase”, “with a computerized oscillometric system recorder (Nyprem, Cibertec).” for “(BioSystems S.A, Barcelona, Spain). Blood samples were obtained by femoral vein punction.”

[2] = system: Drosophila melanogaster (Oregon-R strain); experiment: Toxicology study: larva-to-adult viability and development time; conditions: in vivo
Text: The purpose of this study was to test and compare the potential toxic effects of compounds 5a, 6a and 7a on the larva-to-adult viability and development time in a Drosophila melanogaster (Oregon-R) flies. These studies have a relevant predictive role with the aim to anticipate possible adverse toxicological effects that may happen during preclinical studies with animal, preferably mammals. In addition, the data provided are highly quantitative.
Drosophila melanogaster (Oregon-R) flies were obtained by the University of the Balearic Islands (Spain). […] The larvae were seeded on standard food supplemented with the appropriate dose of compounds tested. Each compound was tested at 1, 10, 100, 1000 and 2000 μg/ml dissolved in standard food.
Fly adults were transferred from the serial transfer system to bottles with fresh food for 24 h. Adults 5 days old were placed on egg collecting devices (layers) containing a mixture of agar, water, acetic acid, and ethyl alcohol, with a drop of active yeast on it. Every 2 h., the layer glasses were changed, in this way, the eggs of a glass have similar age, with a maximum difference of 2 h. among them. The glasses of the layers were kept at 25° C. for at least 22 h. in Petri dishes until larvae hatched. Fifty larvae were picked with a lancet under a stereoscopic microscope and were seeded into 10×2 cm vials with 5 ml food. Vials were supplemented with 4a, 5a and 7a at 1, 10 and 100 μg/ml. As positive control we used cupric acetate (toxic) at 350 μg/ml.
The number of adult flies which emerged from each vial was counted daily until the exhaustion of the culture. The parameters studied were the larvae-to-adult viability (V) and development time.
Viability is expressed as V=NA/NL, where NL is the input number of larvae ([…] in our case) and NA the output number of adults emerging from these NL larvae. Development time was measured in days by the formula DT=ΣNidi/ΣNi where Ni is the number of flies emerging on the day di after the larvae were placed in the medium.
The data are expressed as the mean±SEM values from 3 independent experiments involving triplicate vials at the number of flies indicated.

[3] = system: SHR hypertensive rats; experiment: Plasma triglyceride levels test in SHR hypertensive rats; format: in vivo, Male SHR; conditions: 25 days of treatment (5-15 mg/Kg) oral
Procedure: as §2
as §1, with “of compound” for “of compounds”, “4a” for “4a or 5a or 6a”, “metformin” for “metformin (MET)”, “Plasma triglyceride” for “Plasma cholesterol”, “the glycerol phosphate” for “the cholesterol”

[4] = system: female Swiss mice; experiment: Acute oral toxicology study in a mice model; format: in vivo; conditions: oral 2000 mg/kg single dose, observation for 14 days
Procedure: The experiments were conducted using female Swiss mice (20-30 g), housed under a 12-h light-dark cycle, with controlled humidity (60-80%), and temperature (22±1° C.). Food and water were freely available to the mice.
Female mice (n=6) were orally (2000 mg/kg) administered with a single dose of 4a, 5a, and 7a for the observation of acute signs of toxicity until 14 days. […] The observations comprised the behavior and manifestations of the toxic symptoms, and were carried out according to the Guidelines of the Organization for Economic Cooperation and Development (OECD, 2008).
All compounds were dissolved in sterile saline and were administered by oral gavage to mice based in the weight, for example 20 g received 20 μL.
The data are expressed as mean±S.E.M. of experiments. Statistical significance was determined through one-way analysis of variances (ANOVA), followed by either Newman-Keuls test. A p<0.05 was considered statistically significant. Graphs were drawn and statistical analysis was carried out using GraphPad Prism version 5.00 for Windows (GraphPad Software, San Diego, Calif., USA).

[5] = system: SHR hypertensive rats; experiment: Blood glucose levels test in SHR hypertensive rats; format: in vivo, Male SHR
Procedure: as §2, with “The food was removed 12 h before glucose determination. The” for “The”
Distinct rat groups were orally treated, once a day, with 5 mg/kg of compound 4a during the first 4 days, 10 mg/kg during the next 4 days and 15 mg/kg until the end of the treatment period or vehicle (control) for the same days. Similarly, another rat group received metformin in a 300 mg/kg dose, orally, from day 1 to the end of the treatment. Blood glucose levels were measured in triplicate 12 hours after drug administration with the aid of a GLUCOCARD TM G meter, GT-1810. Results were compared with the effect of metformin […]. Blood samples were obtained by femoral vein punction. This method was chosen because of its noninvasive character, enabling daily measurements with the same rats throughout the entire treatment.

[6] = system: normoglycemic rats; experiment: Oral glucose tolerance test in normoglycemic rats (Examples 27, 28); format: in vivo, Male Wistar rats
Procedure: (§3) Male Wistar rats were utilized provided by Mato Grosso do Sul's Federal University's Biotherium. Until the experiments were carried out, the animals have had free access to feed and water. The room temperature was kept at 22±2° C. and the light/dark cycle was of 12 hours.
The glucose tolerance test is a reference method for the diagnosis of diabetes or glucose intolerance (5).
Distinct rat groups were orally treated, once a day, with 3-(carbohydrazyl-N′-phenylsubstituted)-1-benzosubstituted-β-carbolinic-3-carbohydrazide (compound 7a or ANIS-BZ) at doses: 0.5, 1 or 5 mg/kg or vehicle (control) for 3 days. Similarly, another rat group received metformin (reference drug used for lowering glucose serum levels) in a 300 mg/kg dose, orally, once a day for 3 days. The oral glucose tolerance test was carried out by administering of a glucose solution (2 g/kg body mass). Glycemia was determined at zero time (before oral administering) and at 60 minutes after the glucose overload.
Distinct groups of rats were treated orally, once a day, with N(-ethylamine)-1-benzosubstituted-β-carboline-3-carboxamide (compound 4a or ANIS-NH2) at doses: 0.5, 1 or 5 mg/kg, or vehicle for 3 days. Similarly, another group of rats received metformin in a 300 mg/kg dose orally for 3 days once a day. The oral glucose tolerance test was done under the administration of a glucose solution (2 g/kg body mass). Glycemia will be determined at the zero (before oral administration) time and 60 minutes after glucose overload.

[7] = system: normoglycemic rats; experiment: Oral glucose tolerance test in normoglycemic rats (Examples 36, 37); format: in vivo, Male Wistar rats; conditions: metformin 300 mg/kg orally daily
Procedure: as §3, with “rats (200-300 g)” for “rats”, “C. with controlled humidity (60-80%)” for “C.”
The glucose tolerance test was evaluated as described by Al-Awaki et al (6).
Rats were randomly divided into […] groups of four animals that were control group that received only a solution of saline, compound 23b group (10 mg/kg), compound 21a group (10 mg/kg) and metformin 300 mg/kg group. Respective treatments were made orally and daily for five days.
(§4) On day 1, 3, and 5, different groups of rats were fasted overnight (at least 12 h) prior to the test, but with given water ad libitum. The oral glucose tolerance test was carried out by administering of a glucose solution (2 g/kg body weight) according to Al-Awadi et al (6). Glycemia was determined in blood samples collected from the tail vein at −30 minutes (just before the administration of the oral extract) time 0 (prior to the glucose overload) and at 60 minutes after the glucose overload. Serum glucose concentrations were measured by the glucose oxidase method (7) using commercial kit (Accuchek-performa (Roche)) according to the manufacture's instructions.
as §3, with “rats (200-300 g)” for “rats”, “C. with controlled humidity (60-80%)” for “C.”, “hours. All procedures were submitted to the Animal Experimentation Ethics Committee.” for “hours.”
The compounds 21b, 23a and 23d were diluted firstly in 20 μl of ethanol and after in 980 μl de saline. Compounds 21e, 23e and 26b were dissolved in sterile saline and were administered by oral gavage to rats based in the weight, for example 200 g received 200 μL.
54 rats were randomly divided into […] groups of five-eight animals that were control group (n=8) that received only a solution of vehicle, compound 21b group (n=5) (10 mg/kg), compound 21e group (n=5) (10 mg/kg), compound 23e group (n=5) (10 mg/kg), compound 23a group (n=5) (10 mg/kg), compound 23d group (n=5) (10 mg/kg), compound 26b group (n=5) (10 mg/kg) and metformin (n=6) 300 mg/kg group. Respective treatments were made orally and daily for five days.
as §4, with “manufactures's” for “manufacture's”

[8] = system: SHR hypertensive rats; experiment: Systolic blood pressure test in SHR hypertensive rats; format: in vivo, Male Spontaneously Hypertensive Rats (SHR); conditions: metformin 300 mg/kg oral
Procedure: as §2, with “Spontaneously Hypertensive Rats (SHR)” for “SHR”
as §1, with “Blood samples were obtained by femoral vein punction. This method was chosen because of its noninvasive character, enabling daily measurements with the same rats throughout the entire treatment.” left out
Distinct rat groups were orally treated, once a day, with 5 mg/kg of compounds 4a or 5a or 6a during the first 4 days, 10 mg/kg during the next 4 days and 15 mg/kg until the end of the treatment period or vehicle (control) for the same days. […] Blood pressure was measured in triplicate 4 hours after drug administration in warmed warmed, restrained, conscious rats by the tail-cuff method with a computerized oscillometric system recorder (Nyprem, Cibertec). […]

SMILES	plasma cholesterol levels ([1]; 25 days of treatment (15 mg/Kg) oral, effect more pronounced for 5a and 7a)	larvae-to-adult viability and development time [2]	plasma triglyceride levels [3]	mortality or behavioral disorders (acute signs of toxicity) [4]	blood glucose decrease compared to the vehicle-control group ([5]; doses from 5 to 15 mg/kg oral, treatment periods of 4-15 days)	glycemic levels of animals that received an oral glucose overload ([6]; after 3 days, 0.5 mg/kg oral once a day, vs control group)	glycemic levels of animals that received an oral glucose overload ([6]; after 3 days, 1 mg/kg oral once a day, vs control group)	glycemic levels of animals that received an oral glucose overload ([6]; after 3 days, 5 mg/kg oral once a day, vs control group, 5 mg/kg)	glycemic levels of animals that received an oral glucose overload ([6]; first day, 5 mg/kg oral, vs control group, 60 min after glucose 2 g/kg)	glucose levels in oral glucose tolerance test ([7]; fifth day)	glucose levels in oral glucose tolerance test ([7]; first day)	glucose levels in oral glucose tolerance test ([7]; third day)	plasma cholesterol levels ([1]; 25 days, Metformin 300 mg/Kg oral)	effect on blood glucose levels ([5]; Metformin 300 mg/kg for 23 days)	inhibitory effect on systolic blood pressure [8]	glycemic levels of animals that received an oral glucose overload ([6]; after 3 days, metformin 300 mg/kg oral once a day)	glycemic levels of animals that received an oral glucose overload ([6]; first day, metformin 300 mg/kg oral)
COc1ccc(-c2nc(C(=O)NCCN)cc3c2[nH]c2ccccc23)cc1 [Compound 4a, N(-ethylamine)-1-benzosubstituted-β-carboline-3-carboxamide]	inhibition of plasma cholesterol levels	not affected	statistically significant (p<0.05), inhibition of plasma triglyceride levels	did not produce mortality or any behavioral disorders	5-7%	only the 1 and 5 mg/kg doses reduced statistically significant the glycemic levels	reduced statistically significant the glycemic levels	reduces the glycemic levels; also recorded: reduced statistically significant the glycemic levels	reduces the glycemic levels	–	–	–	–	–	–	–	–
CN(C)C(=N)N=C(N)N [metformin, reference compound]	–	–	–	–	–	–	–	–	–	reduced the glucose levels	significant reduction in glucose levels	induces reduction of glycemic levels; also recorded: significant reduction in glucose levels	inhibition of plasma cholesterol levels	slightly greater effect on blood glucose levels	This effect at 5-15 mg/kg is greater than that of metformin	induces reduction of glycemic levels	induces reduction of glycemic levels
